Source: PubChem BioAssay (NCI)
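Results reflect a 48-hour exposure of cells in 96-well plates to compound at five concentrations. The concentration for 50% growth inhibition is given as GI50. Definition used: TGI = concentration required for complete inhibition of growth.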

What was measured:
Experiment in all cases: NCI tumour cell line growth inhibition, 48 h
[1] = tested on: NCI/ADR-RES ovarian
[2] = tested on: ACHN renal
[3] = tested on: SK-OV-3 ovarian
[4] = tested on: TK-10 renal
[5] = tested on: NCI-H23 lung
[6] = tested on: A549 NSCLC
[7] = tested on: KM12 colon
[8] = tested on: M14 melanoma
[9] = tested on: HOP-92 NSCLC
[10] = tested on: OVCAR-8 ovarian
[11] = tested on: MDA-MB-231 breast
[12] = tested on: CAKI-1 renal
[13] = tested on: A498 renal
[14] = tested on: T-47D breast
[15] = tested on: RPMI-8226 leukemia
[16] = tested on: MCF7 breast
[17] = tested on: OVCAR-4 ovarian
[18] = tested on: HCC-2998 colon
[19] = tested on: SR leukemia
[20] = tested on: CCRF-CEM leukemia
[21] = tested on: SK-MEL-2 melanoma
[22] = tested on: IGROV1 ovarian
[23] = tested on: HCT-116 colon
[24] = tested on: UO-31 renal
[25] = tested on: EKVX NSCLC
[26] = tested on: NCI-H460 lung
[27] = tested on: BT-549 breast
[28] = tested on: NCI-H226 lung
[29] = tested on: SF-295 CNS

O=C1C=CC2(NN=C(c3ccccc3)N2c2ccccc2)c2cccc(O)c21 (configuration not stated)
TGI [1]: 30.9 µM | GI50 [2]: 3.11 µM | TGI [2]: 21.5 µM | GI50 [3]: 11.8 µM | TGI [3]: 98 µM | GI50 [4]: 5.46 µM | TGI [4]: 46 µM | GI50 [5]: 0.46 µM | TGI [5]: 2.18 µM | GI50 [6]: 1.84 µM | TGI [6]: 5 µM | GI50 [7]: 2.65 µM | TGI [7]: 18 µM | GI50 [8]: 1.3 µM | TGI [8]: 2.6 µM | GI50 [9]: 22.8 µM | TGI [9]: 54.2 µM | GI50 [10]: 2.4 µM | TGI [10]: > 100 µM | GI50 [11]: 2.37 µM | TGI [11]: 33.9 µM | GI50 [12]: 5.71 µM | TGI [12]: 50.3 µM | GI50 [13]: 5.52 µM | TGI [13]: 19.6 µM | GI50 [14]: 4.88 µM | TGI [14]: 37.7 µM | GI50 [15]: 3.52 µM | TGI [15]: > 100 µM | GI50 [16]: 1.5 µM | TGI [16]: 3.83 µM | GI50 [17]: 0.698 µM | TGI [17]: 3.21 µM | GI50 [18]: 3.83 µM | TGI [18]: 13 µM | GI50 [19]: 4.38 µM | TGI [19]: 76.9 µM | GI50 [20]: 4.83 µM | TGI [20]: > 100 µM | GI50 [21]: 4.6 µM | TGI [21]: 21.5 µM | GI50 [22]: 3.19 µM | TGI [22]: 17.1 µM | GI50 [23]: 1.38 µM | TGI [23]: 5.26 µM | GI50 [24]: 1.46 µM | TGI [24]: 7.67 µM | GI50 [25]: 1.41 µM | TGI [25]: 14.5 µM | GI50 [26]: 2.56 µM | TGI [26]: 10.2 µM | GI50 [27]: 1.13 µM | TGI [27]: 2.69 µM | GI50 [28]: 1.83 µM | TGI [28]: 4.53 µM | GI50 [29]: 1.34 µM | TGI [29]: 3.18 µM
